Experimental data from ChEMBL document CHEMBL1201862, “PubChem BioAssay data set” (2004).
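Results reflect a 48-hour exposure of cells in 96-well plates to compound at five concentrations. At the GI50, growth is halved.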 The source made the active and inactive calls. No stated cut-off is given here; in the data, active = GI50 up to about 1.1 µM and inactive = higher.

What was measured:
Test in all cases: inhibition of tumour cell growth, NCI panel, 48 h
[1] = system: A498
[2] = system: ACHN
[3] = system: DU-145
[4] = system: HOP-92
[5] = system: HT-29
[6] = system: IGROV-1
[7] = system: K562
[8] = system: LOX IMVI
[9] = system: MDA-MB-231
[10] = system: MDA-N
[11] = system: MOLT-4
[12] = system: NCI-H23
[13] = system: NCI-H522
[14] = system: RPMI-8226
[15] = system: RXF 393
[16] = system: SK-MEL-28
[17] = system: SR
[18] = system: TK-10
[19] = system: UO-31
[20] = system: KM12

Structure (SMILES)	GI50 [1]	GI50 [2]	GI50 [3]	GI50 [4]	GI50 [5]	GI50 [6]	GI50 [7]	GI50 [8]	GI50 [9]	GI50 [10]	GI50 [11]	GI50 [12]	GI50 [13]	GI50 [14]	GI50 [15]	GI50 [16]	GI50 [17]	GI50 [18]	GI50 [19]	GI50 [20]
Cc1cn(CC2=NCC(C)N2)c(=O)[nH]c1=O (stereo not given)	> 100 µM (inactive)	> 100 µM (inactive)	> 100 µM (inactive)	> 100 µM (inactive)	> 100 µM (inactive)	> 100 µM (inactive)	> 100 µM (inactive)	> 100 µM (inactive)	> 100 µM (inactive)	> 100 µM (inactive)	> 100 µM (inactive)	> 100 µM (inactive)	> 100 µM (inactive)	> 100 µM (inactive)	> 100 µM (inactive)	> 100 µM (inactive)	> 100 µM (inactive)	> 100 µM (inactive)	> 100 µM (inactive)	
Cn1c(=O)c2c(nc3[nH]c(=O)c(Br)cn32)n(C)c1=O	> 100 µM (inactive)	> 100 µM (inactive)	> 100 µM (inactive)	> 100 µM (inactive)	> 100 µM (inactive)	> 100 µM (inactive)	> 100 µM (inactive)	> 100 µM (inactive)	> 100 µM (inactive)	> 100 µM (inactive)	> 100 µM (inactive)	> 100 µM (inactive)	> 100 µM (inactive)	> 100 µM (inactive)	> 100 µM (inactive)	> 100 µM (inactive)	> 100 µM (inactive)	> 100 µM (inactive)	> 100 µM (inactive)	> 100 µM (inactive)
COc1cc([C@@H]2c3[nH]c4ccccc4c3C(Nc3ccc([N+](=O)[O-])cc3)[C@H]3COC(=O)N23)cc(OC)c1O (stereo not given in full)	0.14 µM (active)	0.118 µM (active)	0.321 µM (active)	0.229 µM (active)	0.228 µM (active)	0.406 µM (active)	0.179 µM (active)	0.0822 µM (active)	0.352 µM (active)	0.875 µM (active)	0.014 µM (active)	0.111 µM (active)	0.407 µM (active)	0.0652 µM (active)	0.382 µM (active)	0.291 µM (active)	0.0481 µM (active)	0.446 µM (active)	1.27 µM (inactive)	0.326 µM (active)
Cc1ccc(/N=N/c2c(O)ccc3ccccc23)cc1	> 100 µM (inactive)	> 100 µM (inactive)	> 100 µM (inactive)	> 100 µM (inactive)	> 100 µM (inactive)	> 100 µM (inactive)	> 10 µM (inactive)	> 100 µM (inactive)	> 100 µM (inactive)	> 100 µM (inactive)	46.8 µM (inactive)	> 100 µM (inactive)	> 100 µM (inactive)	99.3 µM (inactive)	> 100 µM (inactive)	> 100 µM (inactive)	11.7 µM (inactive)	> 100 µM (inactive)	> 100 µM (inactive)	98.6 µM (inactive)
O=[N+]([O-])c1c(F)c(F)c2c(c1F)N(CCCCCl)c1ccccc1S2	8.81 µM (inactive)	16.5 µM (inactive)	13.2 µM (inactive)	16.4 µM (inactive)	2.54 µM (inactive)	2.27 µM (inactive)	2.05 µM (inactive)	1.58 µM (inactive)	7.89 µM (inactive)	15 µM (inactive)	2.77 µM (inactive)	7.91 µM (inactive)	4.9 µM (inactive)	3.47 µM (inactive)	13.8 µM (inactive)	5.9 µM (inactive)	1.89 µM (inactive)	16.9 µM (inactive)	16.9 µM (inactive)	10.5 µM (inactive)
CC1(C)OCC(C2OC3OC(C)(C)OC3C2N)O1 (stereo not given)	> 100 µM (inactive)	> 100 µM (inactive)	> 100 µM (inactive)	> 100 µM (inactive)	> 100 µM (inactive)	> 100 µM (inactive)	> 100 µM (inactive)	> 100 µM (inactive)	> 100 µM (inactive)	> 100 µM (inactive)	> 100 µM (inactive)	> 100 µM (inactive)	> 100 µM (inactive)	> 100 µM (inactive)	> 100 µM (inactive)	> 100 µM (inactive)	> 100 µM (inactive)	> 100 µM (inactive)	> 100 µM (inactive)	> 100 µM (inactive)
C/C(=N\NC(N)=O)C(CN1CCOCC1)C(c1ccccc1)c1c(O)c2ccccc2oc1=O (stereo not given)	8.63 µM (inactive)	> 100 µM (inactive)	> 100 µM (inactive)	> 100 µM (inactive)	> 100 µM (inactive)	> 100 µM (inactive)	> 100 µM (inactive)	> 100 µM (inactive)	> 100 µM (inactive)	> 100 µM (inactive)	> 100 µM (inactive)	> 100 µM (inactive)	> 100 µM (inactive)	> 100 µM (inactive)		> 100 µM (inactive)	> 100 µM (inactive)	> 100 µM (inactive)	> 100 µM (inactive)	> 100 µM (inactive)
COC(=O)Cc1c2n(c3ccccc13)C(=O)N1c3ccccc3C(CC(=O)OC)C21 (stereo not given)	39.9 µM (inactive)	24.4 µM (inactive)	> 100 µM (inactive)	9.73 µM (inactive)	> 100 µM (inactive)	7.41 µM (inactive)	> 100 µM (inactive)	63.5 µM (inactive)	17.3 µM (inactive)	> 100 µM (inactive)	> 100 µM (inactive)	15.7 µM (inactive)	62.1 µM (inactive)	> 100 µM (inactive)	21.2 µM (inactive)	> 100 µM (inactive)	> 100 µM (inactive)	14.9 µM (inactive)	54.5 µM (inactive)	
O=C(Nc1nc2ccccc2s1)c1cc([N+](=O)[O-])ccc1Cl	> 81.7 µM (inactive)	17 µM (inactive)	6.84 µM (inactive)	5.89 µM (inactive)	5.47 µM (inactive)		3.86 µM (inactive)	3.44 µM (inactive)	> 55.1 µM (inactive)	3.58 µM (inactive)	2.81 µM (inactive)	4.91 µM (inactive)	3.4 µM (inactive)	4.81 µM (inactive)	2.65 µM (inactive)	> 32.1 µM (inactive)	1.54 µM (inactive)	66.4 µM (inactive)	6.76 µM (inactive)	3.29 µM (inactive)
O=C1Nc2ccccc2C1=Nc1ccc(S(=O)(=O)Nc2nccs2)cc1	> 100 µM (inactive)	> 100 µM (inactive)	> 100 µM (inactive)	> 100 µM (inactive)	> 100 µM (inactive)	> 100 µM (inactive)	> 100 µM (inactive)	> 100 µM (inactive)	> 100 µM (inactive)	> 100 µM (inactive)	> 100 µM (inactive)	> 100 µM (inactive)	> 100 µM (inactive)		> 100 µM (inactive)	> 100 µM (inactive)	51.8 µM (inactive)	> 100 µM (inactive)	> 100 µM (inactive)	> 100 µM (inactive)
COc1ccc(/C=C2/C(=O)C(c3ccccc3)N(c3ccccc3)C2=O)cc1OC (stereo not given)	1.41 µM (inactive)	> 10 µM (inactive)	> 10 µM (inactive)	> 10 µM (inactive)	> 10 µM (inactive)	0.975 µM (active)		> 10 µM (inactive)	> 10 µM (inactive)	> 10 µM (inactive)	> 10 µM (inactive)	> 10 µM (inactive)	> 10 µM (inactive)	> 10 µM (inactive)	> 10 µM (inactive)	> 10 µM (inactive)	> 10 µM (inactive)	> 10 µM (inactive)	> 10 µM (inactive)	> 10 µM (inactive)
Oc1ccc(/C=C/c2cc(O)cc3c2C(c2cc(O)cc(O)c2)C(c2ccc(O)c(O)c2)O3)cc1 (stereo not given)	33.5 µM (inactive)	15 µM (inactive)	35.1 µM (inactive)	37.1 µM (inactive)	17.6 µM (inactive)	31.4 µM (inactive)		27 µM (inactive)	29 µM (inactive)	18.2 µM (inactive)	11.6 µM (inactive)	18.8 µM (inactive)	27 µM (inactive)	13.5 µM (inactive)	41.3 µM (inactive)	25.1 µM (inactive)	17.6 µM (inactive)	27.1 µM (inactive)	30.9 µM (inactive)	25.6 µM (inactive)
COc1cc2nc(-c3ccc4ccccc4c3)nc(O)c2cc1OC	72.9 µM (inactive)	48.8 µM (inactive)	> 100 µM (inactive)	37.5 µM (inactive)	> 100 µM (inactive)	> 100 µM (inactive)	> 100 µM (inactive)	> 100 µM (inactive)	> 100 µM (inactive)	> 100 µM (inactive)	> 100 µM (inactive)	49.2 µM (inactive)	56.1 µM (inactive)	> 100 µM (inactive)	41.7 µM (inactive)		> 100 µM (inactive)		> 100 µM (inactive)	> 100 µM (inactive)
CC(C)C1CC(CO)(CNc2cc(Cl)nc(N)n2)C1 (stereo not given)	4.49 µM (inactive)	> 100 µM (inactive)	> 100 µM (inactive)	45 µM (inactive)	> 100 µM (inactive)	> 100 µM (inactive)	9.57 µM (inactive)	10.4 µM (inactive)	94 µM (inactive)	57.7 µM (inactive)	> 10 µM (inactive)		39 µM (inactive)	11.8 µM (inactive)	19.7 µM (inactive)	> 100 µM (inactive)	14.9 µM (inactive)	> 100 µM (inactive)	54 µM (inactive)	> 100 µM (inactive)
